Reference: US20240075031A1 (HHT Foundation International, Inc., priority 2020, published 2024)
Read-outs that look alike come from different tables or passages of the source.

Key:
[1] = 6 patient PK study, 50 mg SD, powder in capsule (disclosed method); type: in vivo, patients; settings: for AUC / Cmax: 50 mg
Description: In some embodiments, may be similar to the results expected of a crushed tablet. No reduction in the standard error (SE), but only 6 patients may not be adequate to see this range of exposures decrease. An improvement with powder in capsules is that the variation in exposure should also be truncated based on prior crushed tablet study.

[2] = system: transfusion-dependent adults with HHT (epistaxis and/or GI bleeding); test: Single-center pazopanib treatment pathway for severe bleeding and transfusion-dependent anemia in HHT; settings: for RBC units transfused, median (IQR): pretreatment 3 months 16.0 (9.5-22.0); for patients with transferrin saturation ≥20%: no patient at baseline
Description: In some embodiments, and still referring to FIG. 1, subjects may undergo follow-up clinical visits with vital signs, laboratory evaluations [complete blood count with white-cell differential, serum ferritin, iron and transferrin saturation, complete metabolic panel including liver function testing (transaminases, bilirubin, and alkaline phosphatase), serum phosphorous, urinalysis, and thyroid-stimulating hormone levels], electrocardiogram, and ESS calculations at a preconfigured time interval such as but not limited to 1 month, 2 months, 3 months, 4 months, 5 months, 6 months, and the like thereof per the pathway, with additional laboratory testing and visits as indicated.
In some embodiments, one or more secondary endpoints may include hemoglobin concentrations, epistaxis severity scores, iron infusions, baseline serum ferritin, and/or transferrin saturation.
Baseline and on-treatment hemoglobin values were drawn at clinical nadir (just prior to a scheduled transfusion) to minimize any impact of transfusion on the value. If more than one value was measured in a given 3-month period, the average value for that period was documented for analysis.
Now referring to FIG. 3B, three-month ESS was collected by the treating physician at treatment initiation and visits at 3, 6, 9, and 12 months on-treatment.
Now referring to FIG. 3C, a number of RBC units transfused in the 3 months of pretreatment were compared with the number of units transfused at each 3-month time interval on-treatment (1-3, 4-6, 7-9, and 10-12 months). The same analysis was performed for the total milligrams of elemental iron administered by IV infusion.
Baseline and on-treatment iron studies were drawn at nadir (prior to iron infusion or RBC transfusion, if either was given) to minimize any impact of recent iron infusion or RBC transfusion on the values.

[3] = set-up: AUC.0-24, Mean: unit not given beside the values; settings: historical values, Hurwitz 2009; 50 mg SD; cited from earlier work
[4] = disclosed method, 6 patients, 50 mg SD

Which “increase in the Area Under the Curve (AUC) from prior publications of comparable dosing” value ([1]; capsule enclosing a powder substance) does the source give for `Cc1ccc(Nc2nccc(N(C)c3ccc4c(C)n(C)nc4c3)n2)cc1S(N)(=O)=O` [pazopanib] here?
The value was 20-25%.

What about the “C24, GeoMean” value [1, 4] of the same compound?
Its value is 1.90.

What about the “C24, Mean” value [1, 4] of the same compound?
Its value is 2.09.

And the AUC ([1]; human, plasma, oral, disclosed method, 6 patients, 50 mg SD, read-out: AUC.0-24, GeoMean)?
The AUC was 59800 ng·h/mL.

What about the AUC ([1]; human, plasma, oral, disclosed method, 6 patients, 50 mg SD, read-out: AUC.0-24, Mean) of the same compound?
Its AUC is 64400 ng·h/mL.

And the Cmax ([1]; human, plasma, oral, disclosed method, 6 patients, 50 mg SD, read-out: Cmax, GeoMean)?
Its Cmax is 3820 ng/mL.

And the Cmax ([1]; human, plasma, oral, disclosed method, 6 patients, 50 mg SD, read-out: Cmax, Mean)?
The Cmax was 4120 ng/mL.

And the Tmax ([1]; human, plasma, oral, disclosed method, 6 patients, 50 mg SD, read-out: Tmax, median)?
Its Tmax is 4.5 h.

What about the “RBC units transfused, median (IQR)” value ([2]; 1-3 months of on-treatment) of the same compound?
Its value is 0.0 (0.0-1.0) units.

And the “elemental iron infused, median (IQR)” value ([2]; 1-3 months on-treatment, pretreatment 3 months 4500 (2145-7260))?
Its value is 0 (0-1500) milligrams.

And the “patients with freedom from anemia (Hgb≥11 g/dL)” value (“patients with freedom” for short) ([2]; 3 months)?
Its value is 15%.

And the “RBC units transfused, median (IQR)” value ([2]; 4-6, 7-9, and 10-12 months of on-treatment)?
The value was 0.0 (0.0-0.0) units.

What about the “elemental iron infused, median (IQR)” value ([2]; 4-6 months on-treatment) of the same compound?
Its value is 0 (0-1260) milligrams.

And the “patients with freedom” value ([2]; 6 months)?
The value was 85%.

And the “patients with transferrin saturation ≥20%” value ([2]; 6 months, 8 patients)?
The value was 62%.

What about the “elemental iron infused, median (IQR)” value ([2]; 7-9 months on-treatment) of the same compound?
Its value is 0 (0-1260) milligrams.

What about the “patients with freedom” value ([2]; 9 months) of the same compound?
The value was 85%.

And the “elemental iron infused, median (IQR)” value ([2]; 10-12 months on-treatment)?
Its value is 0 (0-510) milligrams.

And the “patients with freedom” value ([2]; 12 months)?
Its value is 92%.

And the “patients not requiring any local hemostatic procedures after initiating treatment” value ([2]; 12 months on-treatment, 9 patients)?
The value was 69%.

What about the “patients with transferrin saturation ≥20%” value ([2]; 12 months, 7 patients) of the same compound?
Its value is 54%.

And the “patients achieving RBC transfusion independence” value ([2]; at 3 months of treatment, 10 of 13 patients)?
The value was 77%.

What about the “remaining patients achieving RBC transfusion independence” value ([2]; at 6 months of treatment, 3 of 13 patients) of the same compound?
The value was 23%.

And the “patients entirely RBC transfusion free” value ([2]; during the 12 months following pazopanib initiation, 9 of 13 patients)?
Its value is 69%.

What about the “number of local hemostatic procedures, median (range)” value ([2]; during the 12 months of on-treatment, 12 months pretreatment 4 (1-5)) of the same compound?
The value was 0 (0-2).

And the “patients achieving RBC transfusion independence per Gale criteria” value ([2]; first year of pazopanib treatment, 13 patients analysed)?
The value was 13 patients.

And the “transferrin saturation, median (IQR)” value ([2]; on-treatment (average of values at 6 and 12 months), baseline 9% (5-11%))?
The value was 23%.

And the “serum ferritin, median (IQR)” value ([2]; on-treatment (average of values at 6 and 12 months), baseline 31 (16-71))?
The value was 122 (79-154) ng/mL.

What about the “AUC.0-24, Mean” value [3] of the same compound?
The value was 51.8.

What about the “C24, Mean” value [3] of the same compound?
Its value is 1.5.

And the “Tmax, median” value [3]?
Its value is 3.0/.
